Columns and labels:
[1] = Equilibrium solubility test (HPLC); details: for solubility thermodynamic at 12 h / solubility thermodynamic at 24 h: thermodynamic from solid
Procedure: The column used was an Agilent C18 column (5.0 μm, 4.6 × 150 mm). The mobile phase and diluted solution of the content and dissolution studies analyses were prepared with 0.5% triethylamine buffer (v/v, pH 6.8 adjusted with 85% phosphoric acid) and acetonitrile at a ratio of 7:3 (v/v). The mobile phase was filtered through a 0.45-μm polypropylene membrane filter and degassed via sonication. The wavelength, flow rate, and injection volume were set to 205 nm, 1.5 mL/min, and 20 μL, respectively. In the case of the content and dissolution studies, the mobile phase was constantly flowed for 18 min via an isocratic elution method and analyzed.
The equilibrium solubility test was used to calculate the input amount through the apparent solubility test result, and an excess of the API was placed in each beaker and stirred at 400 rpm. At 0, 12, and 24 h immediately after the overdose, 2 mL samples were taken and filtered through a 0.45-μm regenerated cellulose syringe filter. The supernatant of the filtered solution was taken and diluted with a content analysis diluted solution. […] A calibration test was performed, and the sample was diluted with a diluted solution and prepared at a concentration of 0.05–1 mg/mL.

[2] = Stability study of the APIs in pH buffers (total impurity by HPLC); type: physicochemical
Procedure: The column used was the Gemini C18 column (5.0 μm, 250 mm). Mobile phase A of the impurity study was prepared with KH2PO4 buffer (v/v, solution adjusted to pH 6.0 with 1 M KOH): acetonitrile: methanol = 85: 10: 5 (v/v/v), and mobile phase B was prepared with 90% acetonitrile. The mobile phase was filtered through a 0.4 μm polypropylene membrane filter and degassed via sonication. The diluted solution was prepared with KH2PO4 buffer (v/v, solution adjusted to pH 6.0 with 1 M KOH) and acetonitrile at a ratio of 7:3 (v/v). The wavelength, flow rate, and injection volume were set to 220 nm, 1.0 mL/min, and 20 μL, respectively. The column and sample thermostats were set to 35 °C and 5 °C, respectively. In the case of the impurity study, the analysis was performed by changing the composition of the mobile phase for 80 min using a gradient elution method for 80 min.
[…] […] We performed a calibration test, and the sample was diluted with a diluted solution and prepared at a concentration of 0.05–1 mg/mL.

[3] = Compatibility study API-excipient / API-API (total impurities by HPLC); type: physicochemical
Procedure: The column used was the Gemini C18 column (5.0 μm, 250 mm). […] The mobile phase was filtered through a 0.4 μm polypropylene membrane filter and degassed via sonication. […] The column and sample thermostats were set to 35 °C and 5 °C, respectively. […] The compatibility study was performed using appearance and impurity tests to confirm the interaction between each API and the excipient. Each API was mixed with mannitol, microcrystalline cellulose, lactose, silicified microcrystalline cellulose, calcium hydrogen phosphate anhydrous, pregelatinized starch, sodium starch glycolate, crospovidone, sodium croscarmellose, magnesium stearate, colloidal silicon dioxide, sodium stearyl fumarate, hydroxypropyl cellulose, calcium hydroxide, citric acid, and OPADRY II pink in a 1:1 (w/w) ratio and put into each clear glass vial.

[4] = oral; cited from earlier work
[5] = cited from earlier work
[6] = buffer solution, pH 3, aqueous buffer
[7] = buffer solution, pH 4, aqueous buffer
[8] = buffer solution, pH 5, aqueous buffer
[9] = buffer solution, pH 6, aqueous buffer
[10] = buffer solution, pH 6.8, aqueous buffer
[11] = buffer solution, pH 7, aqueous buffer
[12] = buffer solution, pH 8, aqueous buffer
[13] = buffer solution, pH 9, aqueous buffer
[14] = buffer solution, pH 10, aqueous buffer
[15] = pH 1.2 buffer solution, pH 1.2, aqueous buffer
[16] = pH 2.0 buffer solution, pH 2, aqueous buffer
[17] = pH 12.0 buffer solution, pH 12, aqueous buffer

amount dissolved in dissolution medium ([1]; 900 mL of dissolution medium): more than 0.33 mg per 1 mL
solubility thermodynamic at 12 h [1, 6]: 400 µg/mL
solubility thermodynamic at 24 h [1, 6]: 400 µg/mL
solubility thermodynamic at 12 h [1, 7]: 370 µg/mL
solubility thermodynamic at 24 h [1, 7]: 370 µg/mL
solubility thermodynamic at 12 h [1, 8]: 370 µg/mL
solubility thermodynamic at 24 h [1, 8]: 370 µg/mL
solubility thermodynamic at 12 h [1, 9]: 320 µg/mL
solubility thermodynamic at 24 h [1, 9]: 320 µg/mL
solubility thermodynamic at 12 h [1, 10]: 330 µg/mL
solubility thermodynamic at 24 h [1, 10]: 330 µg/mL
solubility thermodynamic at 12 h [1, 11]: 320 µg/mL
solubility thermodynamic at 24 h [1, 11]: 320 µg/mL
solubility thermodynamic at 12 h [1, 12]: 350 µg/mL
solubility thermodynamic at 24 h [1, 12]: 350 µg/mL
solubility thermodynamic at 12 h [1, 13]: 340 µg/mL
solubility thermodynamic at 24 h [1, 13]: 340 µg/mL
solubility thermodynamic at 12 h [1, 14]: 340 µg/mL
solubility thermodynamic at 24 h [1, 14]: 340 µg/mL
solubility thermodynamic at 12 h ([1]; buffer solution, pH 11, aqueous buffer): 210 µg/mL
solubility thermodynamic at 12 h ([1]; deionized water, water): 290 µg/mL
solubility thermodynamic at 24 h ([1]; deionized water, water): 290 µg/mL
solubility thermodynamic at 12 h [1, 15]: 340 µg/mL
solubility thermodynamic at 24 h [1, 15]: 340 µg/mL
solubility thermodynamic at 12 h [1, 16]: 350 µg/mL
solubility thermodynamic at 24 h [1, 16]: 350 µg/mL
solubility thermodynamic at 24 h ([1]; pH 11.0 buffer solution, pH 11, aqueous buffer): 210 µg/mL
solubility thermodynamic at 12 h [1, 17]: 240 µg/mL
solubility thermodynamic at 24 h [1, 17]: 240 µg/mL
Total Impurity ([2]; pH 1.2 buffer, 20 ± 2 °C/60 ± 5% RH, 3 Days): 0.08%
Total Impurity ([2]; pH 1.2 buffer, 20 ± 2 °C/60 ± 5% RH, 7 Days): 0.12%
Total Impurity ([2]; pH 1.2 buffer, 40 ± 2 °C/75 ± 5% RH, 3 Days): 0.11%
Total Impurity ([2]; pH 1.2 buffer, 40 ± 2 °C/75 ± 5% RH, 7 Days): 0.73%
Total Impurity ([2]; pH 1.2 buffer, Initial): 0.06%
Total Impurity ([2]; pH 2.0 buffer, 20 ± 2 °C/60 ± 5% RH, 3 Days): 0.00%
Total Impurity ([2]; pH 2.0 buffer, 20 ± 2 °C/60 ± 5% RH, 7 Days): 0.00%
Total Impurity ([2]; pH 2.0 buffer, 40 ± 2 °C/75 ± 5% RH, 3 Days): 0.02%
Total Impurity ([2]; pH 2.0 buffer, 40 ± 2 °C/75 ± 5% RH, 7 Days): 1.03%
Total Impurity ([2]; pH 2.0 buffer, Initial): 0.00%
Total Impurity ([2]; pH 3.0 buffer, 20 ± 2 °C/60 ± 5% RH, 3 Days): 1.30%
Total Impurity ([2]; pH 3.0 buffer, 20 ± 2 °C/60 ± 5% RH, 7 Days): 1.99%
Total Impurity ([2]; pH 3.0 buffer, 40 ± 2 °C/75 ± 5% RH, 3 Days): 7.29%
Total Impurity ([2]; pH 3.0 buffer, 40 ± 2 °C/75 ± 5% RH, 7 Days): 14.76%
Total Impurity ([2]; pH 3.0 buffer, Initial): 0.06%
Total Impurity ([2]; pH 4.0 buffer, 20 ± 2 °C/60 ± 5% RH, 3 Days): 0.00%
Total Impurity ([2]; pH 4.0 buffer, 20 ± 2 °C/60 ± 5% RH, 7 Days): 0.01%
Total Impurity ([2]; pH 4.0 buffer, 40 ± 2 °C/75 ± 5% RH, 3 Days): 0.04%
Total Impurity ([2]; pH 4.0 buffer, 40 ± 2 °C/75 ± 5% RH, 7 Days): 0.12%
Total Impurity ([2]; pH 4.0 buffer, Initial): 0.00%
Total Impurity ([2]; pH 5.0 buffer, 20 ± 2 °C/60 ± 5% RH, 3 Days): 0.16%
Total Impurity ([2]; pH 5.0 buffer, 20 ± 2 °C/60 ± 5% RH, 7 Days): 0.26%
Total Impurity ([2]; pH 5.0 buffer, 40 ± 2 °C/75 ± 5% RH, 7 Days): 4.48%
Total Impurity ([2]; pH 5.0 buffer, Initial): 0.00%
Total Impurity ([2]; pH 6.0 buffer, 20 ± 2 °C/60 ± 5% RH, 3 Days): 0.00%
Total Impurity ([2]; pH 6.0 buffer, 20 ± 2 °C/60 ± 5% RH, 7 Days): 0.04%
Total Impurity ([2]; pH 6.0 buffer, 40 ± 2 °C/75 ± 5% RH, 3 Days): 0.15%
Total Impurity ([2]; pH 6.0 buffer, 40 ± 2 °C/75 ± 5% RH, 7 Days): 0.28%
Total Impurity ([2]; pH 6.0 buffer, Initial): 0.00%
Total Impurity ([2]; pH 6.8 buffer, 20 ± 2 °C/60 ± 5% RH, 3 Days): 0.01%
Total Impurity ([2]; pH 6.8 buffer, 20 ± 2 °C/60 ± 5% RH, 7 Days): 0.01%
Total Impurity ([2]; pH 6.8 buffer, 40 ± 2 °C/75 ± 5% RH, 3 Days): 0.00%
Total Impurity ([2]; pH 6.8 buffer, 40 ± 2 °C/75 ± 5% RH, 7 Days): 0.12%
Total Impurity ([2]; pH 6.8 buffer, Initial): 0.00%
Total Impurity ([2]; pH 7.0 buffer, 20 ± 2 °C/60 ± 5% RH, 3 Days): 0.02%
Total Impurity ([2]; pH 7.0 buffer, 20 ± 2 °C/60 ± 5% RH, 7 Days): 0.04%
Total Impurity ([2]; pH 7.0 buffer, 40 ± 2 °C/75 ± 5% RH, 3 Days): 0.7%
Total Impurity ([2]; pH 7.0 buffer, 40 ± 2 °C/75 ± 5% RH, 7 Days): 0.69%
Total Impurity ([2]; pH 7.0 buffer, Initial): 0.00%
Total Impurity ([2]; pH 8.0 buffer, 20 ± 2 °C/60 ± 5% RH, 3 Days): 0.03%
Total Impurity ([2]; pH 8.0 buffer, 20 ± 2 °C/60 ± 5% RH, 7 Days): 0.05%
Total Impurity ([2]; pH 8.0 buffer, 40 ± 2 °C/75 ± 5% RH, 3 Days): 0.42%
Total Impurity ([2]; pH 8.0 buffer, 40 ± 2 °C/75 ± 5% RH, 7 Days): 1.06%
Total Impurity ([2]; pH 8.0 buffer, Initial): 0.00%
Total Impurity ([2]; pH 9.0 buffer, 20 ± 2 °C/60 ± 5% RH, 3 Days): 1.27%
Total Impurity ([2]; pH 9.0 buffer, 20 ± 2 °C/60 ± 5% RH, 7 Days): 1.47%
Total Impurity ([2]; pH 9.0 buffer, 40 ± 2 °C/75 ± 5% RH, 3 Days): 3.90%
Total Impurity ([2]; pH 9.0 buffer, 40 ± 2 °C/75 ± 5% RH, 7 Days): 6.31%
Total Impurity ([2]; pH 9.0 buffer, Initial): 1.02%
Total Impurity ([2]; pH 10.0 buffer, 20 ± 2 °C/60 ± 5% RH, 3 Days): 0.46%
Total Impurity ([2]; pH 10.0 buffer, 20 ± 2 °C/60 ± 5% RH, 7 Days): 0.66%
Total Impurity ([2]; pH 10.0 buffer, 40 ± 2 °C/75 ± 5% RH, 3 Days): 0.30%
Total Impurity ([2]; pH 10.0 buffer, 40 ± 2 °C/75 ± 5% RH, 7 Days): 4.78%
Total Impurity ([2]; pH 10.0 buffer, Initial): 0.15%
Total Impurity ([2]; pH 11.0 buffer, 20 ± 2 °C/60 ± 5% RH, 3 Days): 0.14%
Total Impurity ([2]; pH 11.0 buffer, 20 ± 2 °C/60 ± 5% RH, 7 Days): 0.22%
Total Impurity ([2]; pH 11.0 buffer, 40 ± 2 °C/75 ± 5% RH, 3 Days): 1.99%
Total Impurity ([2]; pH 11.0 buffer, 40 ± 2 °C/75 ± 5% RH, 7 Days): 3.69%
Total Impurity ([2]; pH 11.0 buffer, Initial): 0.00%
Total Impurity ([2]; pH 12.0 buffer, 20 ± 2 °C/60 ± 5% RH, 3 Days): 0.75%
Total Impurity ([2]; pH 12.0 buffer, 20 ± 2 °C/60 ± 5% RH, 7 Days): 1.05%
Total Impurity ([2]; pH 12.0 buffer, 40 ± 2 °C/75 ± 5% RH, 3 Days): 2.62%
Total Impurity ([2]; pH 12.0 buffer, 40 ± 2 °C/75 ± 5% RH, 7 Days): 4.11%
Total Impurity ([2]; pH 12.0 buffer, Initial): 0.00%
Total Impurities ([3]; 20 ± 2 °C/60 ± 5% RH, 2 Weeks): 0.10%
Total Impurities ([3]; 20 ± 2 °C/60 ± 5% RH, 4 Weeks): 0.09%
Total Impurities ([3]; 40 ± 2 °C/75 ± 5% RH, 2 Weeks): 0.08%
Total Impurities ([3]; 40 ± 2 °C/75 ± 5% RH, 4 Weeks): 0.12%
Total Impurities ([3]; Initial): 0.09%
SMILES: CCOc1ccc(Cc2cc([C@@H]3O[C@H](CO)[C@@H](O)[C@H](O)[C@H]3O)ccc2Cl)cc1 [Dapagliflozin, (1S)-1,5-Anhydro-1-C-[4-chloro-3-[(4-ethoxyphenyl)methyl]phenyl]-D-glucitol (S)-propane-1,2-diol (1:1) monohydrate]
Tmax [4]: 2 h
BCS [5]: Class 3

Source: article PMC10141516 (Pharmaceutics, 2023)
